Data set [1] has as its system VSMCs in human saphenous vein. Kind of data set: Proliferation after ex vivo siRNA transfection of whole vein. In kind it is cell-based. Conditions: 100 nM, three days after transfection, vs control siRNA.
The test system of data set [2] is MARCKS mRNA. Kind of data set: MARCKS mRNA knockdown after lipofection, HVSMCs (qRT-PCR). Conditions: 100 nM, 24 hours after lipofection. The format is cell-based, human. As to the method: (§1) MARCKS knockdown was achieved by lipofection of HVSMCs and HECs with MARCKS siRNA. Lipofection was performed using the DharmAFECT1 transfection reagent (Dharmacon) for 24 hours in serum- and antibiotic-free media as per manufacturer's protocol.
(§2) Evaluation of target gene mRNA knockdown after siRNA delivery was analyzed using a Stratagene MX3000P real time PCR (qRT-PCR) machine (Stratagene, La Jolla, Calif.). Total RNA was extracted from plate wells using RNeasy spin columns (Qiagen, Valencia, Calif.) and cDNA was prepared from […] using the iScript cDNA synthesis kit (Bio-Rad, Hercules, Calif.) prior to thermal cycling. For quantitative analysis, target gene levels were normalized to 18s or B2M levels as previously described (Bustin, S A et al. (2004) J. Mol. Endocrinol. 29(1):23-39), and target and housekeeper gene amplification reactions were performed in triplicate for each cDNA sample using 1 μl cDNA per reaction. […]
(§3) Thermal cycling was performed under the following conditions: Stage 1: 10 minutes at 95° C.; Stage 2 (40 cycles): 30 seconds at 95° C., 1 minute at 60° C., 30 seconds at 72° C. The Comparative Quantification software tool was used to compare normalized gene levels from cells transfected with targeting siRNA vs. non-targeting control siRNA (calibrators). […]
(In qPCR the cycle at which signal appears reflects the starting amount.)

Data set [3] has as its system MARCKS mRNA. The data set can be described thus: MARCKS mRNA knockdown after lipofection, HECs (qRT-PCR). In kind it is cell-based, human. Conditions: 5 nM, 24 hours after lipofection. As to the method:
as §1, §2, §3

Data set [4] concerns MARCKS protein. Kind of data set: MARCKS protein Western blot, HVSMCs. In kind it is cell-based, human. To be noted: 100 nM, 3 days after lipofection. As to the method:
as §1
(§4) Cell extracts were recovered from 6-well plates after siRNA lipofection and analyzed by sodium dodecyl sulfate-polyacrylamide gel electrophoresis (SDS-PAGE) and Western blotting with the use of standard techniques. Antibodies used for protein detection were: mouse monoclonal anti-GAPDH (1:10,000 dilution, Ambion), goat polyclonal anti-MARCKS (N-19) IgG (1:100 dilution, Santa Cruz Biotechnology, Santa Cruz, Calif.), mouse monoclonal anti-p27^kip-1 (1:250 dilution, Pharmingen, San Diego, Calif.) and mouse anti-β-tubulin IgM (clone 5H1) (1:250 dilution, Pharmingen, San Diego, Calif.). Secondary antibodies used were peroxidase-conjugated goat anti-mouse IgG (H+L) (1:1,000-1:5,000 dilution, Chemicon International, Temecula, Calif.) and peroxidase-conjugated rabbit anti-goat IgG (H+L) (1:500 dilution, Bio-Rad). Densitometry was performed using Adobe Photoshop 6.0 or NIH Image J 1.34.

For data set [5], the system named is MARCKS protein. The data set can be described thus: MARCKS protein Western blot, HECs. To be noted: 25 nM, 3 days after lipofection. The format is cell-based, human. As to the method: as §1, §4
For orientation: Immunoblotting shows a protein as a band on a membrane.

Data set [6] concerns HVSMCs. The data set can be described thus: Fluoroblok migration assay, HVSMCs. The format is cell-based, human. To be noted: 100 nM, 3 days after lipofection, 30% FBS. As to the method:
The migratory and proliferative abilities of HVSMCs and HECs were assessed after MARCKS knockdown using migration and proliferation assays. Phenotypic analysis of HVSMC migration was performed using the Fluoroblok migration assay (BD Biosciences, San Jose, Calif.) to measure the ability of calcein-AM fluorescently-labeled cells to migrate through a PET membrane with […] towards a chemotactant stimulus of 30% FBS. Briefly, VSMCs were incubated in 10 μM calcein-AM (Invitrogen) for 1 hour, trypsinized, and resuspended in serum-free VSMC media. In this assay, the upper chamber of the Transwell insert is separated from the lower chamber by a fluorescently opaque polyethyleneterephthalate (PET) membrane with 8 μm pores at the base of the insert. Approximately 50,000 VSMCs were loaded in each of the upper wells. The lower wells contained media supplemented with serum-free VSMC media, VSMC media with 30% FBS, or EC-conditioned media to stimulate cell migration. At time 0, the upper chambers were read at an excitation of 485 nm and an emission of 535 nm on a Biotek Fluorometer FLX800 (BioTek Instruments) and returned to the incubator. After 24 hours, the lower chambers were read with the same settings. The proportion of cells migrated were calculated by dividing the fluorescent intensity after 24 hours by the intensity read at time 0. […]

The test system of data set [7] is HECs. The data set can be described thus: Fluoroblok migration assay, HECs. In kind it is cell-based, human.
Data set [8] relates to HVSMCs. The data set can be described thus: alamarBlue proliferation assay, HVSMCs. The format is cell-based, human. As to the method:
Phenotypic analysis of vascular cell proliferation was performed using the alamarBlue assay (Trek Diagnostics, Cleveland, Ohio), as previously described (Voytik-Harbin, SL et al. (1998) In Vitro Cell Dev. Biol. Anim. 34(3):239-246), to quantitate total cellular metabolic activity in the wells of tissue culture plates. Briefly, HVSMCs were plated on 24-well plates at a density of 10,000 cells per well and grown for 24 hours in normal cell media. Afterwards, a Day 0 measurement of fluorescent intensity after 4 hour incubation with the alamarBlue reagent was obtained prior to siRNA lipofection. 24 hour siRNA lipofection in serum-free media served as the starvation period to synchronize cells in the cell cycle, followed by the application of media with 30% FBS to stimulate proliferation. AlamarBlue assays were performed every two days, followed by the reapplication of fresh media with 30% FBS. For analysis, the fluorescence intensity of each well was determined using an LS-5B Luminescence Spectrometer (PerkinElmer) at excitation and emission wavelengths of 509 and 590 nm, respectively, and was divided by the value obtained at Day 0 to generate a measure of relative proliferation.
(In general: Alamar Blue is a resazurin reagent that responds to reducing activity.)

For data set [9], the system named is HECs. The data set can be described thus: alamarBlue proliferation assay, HECs. In kind it is cell-based, human. Conditions: 25 nM.
Data set [10] deals with p27^kip1. Kind of data set: p27kip1 Western blot after MARCKS knockdown, HVSMCs. In kind it is cell-based, human. To be noted: 25 nM, 24 hours post-induction with 30% FBS, GAPDH corrected densitometry. As to the method:
(§5) To investigate the differential effects of MARCKS knockdown on the proliferation of vascular cells, Western blots were performed to assess p27^kip1 expression after the induction of proliferation in HVSMCs and HECs. To assess p27^kip1 expression in the setting of MARCKS knockdown, HVSMC and HECs were transfected with 25 nM Control (C) or MARCKS (M) siRNA followed by 48 hour starvation in media with 0.1% FBS to synchronize cells in the Go phase of the cell cycle. Proliferation was then induced by the addition of media with 30% FBS and cells were lysed 24 hours post-induction for protein harvest and Western blot analysis.
(§6) Cell extracts were recovered from 6-well plates after siRNA lipofection and analyzed by sodium dodecyl sulfate-polyacrylamide gel electrophoresis (SDS-PAGE) and Western blotting with the use of standard techniques. Antibodies used for protein detection were: mouse monoclonal anti-GAPDH (1:10,000 dilution, Ambion), goat polyclonal anti-MARCKS (N-19) IgG (1:100 dilution, Santa Cruz Biotechnology, Santa Cruz, Calif.), mouse monoclonal anti-p27^kip-1 (1:250 dilution, Pharmingen, San Diego, Calif.) and mouse anti-β-tubulin IgM (clone 5H1) (1:250 dilution, Pharmingen, San Diego, Calif.). […]

Data set [11] deals with p27^kip1. Kind of data set: p27kip1 Western blot after MARCKS knockdown, HECs. The format is cell-based, human. To be noted: 25 nM, 24 hours post-induction with 30% FBS, GAPDH corrected densitometry. As to the method:
as §5, §6

Data set [12] deals with MARCKS mRNA. Kind of data set: Rapid siRNA transfection, MARCKS mRNA knockdown, HVSMCs. The format is cell-based, human. To be noted: 10 minutes, 2000 cells per well. As to the method: (§7) To more rigorously study the effects of pressure on gene silencing in vascular cells and develop an in vitro model for rapid siRNA transfection, a chamber that could hold standard tissue culture plates and be pressurized with wall air was fabricated. HVSMCs and HECs were seeded in 96-well plates at a density of 6,000 cells/cm^2 and were treated with Control or MARCKS siRNA suspended in normal saline solution, without the addition of a transfection reagent, at concentrations from 1-25 μM in either water, lactate ringers solution (Baxter, Deerfield, Ill.), normal saline (Baxter), cell media, or Plasmalyte A (Baxter) supplemented with 12 mg/ml papaverine hydrochloride and 4 units/ml heparin sodium (LoGerfo, FW et al. (1984) Arch. Surg. 119(10):1212-1214). First, siRNA solutions were applied to one plate of each cell type and rapid siRNA transfection was performed by placing cells in the specially-designed pressure chamber for 10 minutes while raising the ambient pressure by 0-1 ATM using wall air. Cells were then removed from the chamber and the siRNA solution was promptly aspirated and replaced with fresh media prior to returning the plates to the incubator. Parallel plates were subjected the same siRNA treatment and placed in the chamber for 10 minutes without pressurization.
(§8) Evaluation of target gene mRNA knockdown was performed as described in Example 8 above.

The subject of data set [13] is MARCKS mRNA. Kind of data set: Rapid siRNA transfection, MARCKS mRNA knockdown, HECs. The format is cell-based, human. Conditions: 10 minutes, 2000 cells per well. As to the method: as §7, §8
In data set [14] the test system is VSMCs. Conditions: 100 μM, 24 hours, FBS and TNF-α stimulus. As to the method:
To assess cellular migration, a fluorescent migration assay (BD Biosciences, San Jose, Calif.) was utilized. In this assay, VSMC's grown in culture were labeled with 1 μM calcein. Approximately 50,000 cells, suspended in serum free media, were loaded onto a 0.3 cm^2 insert. The surface of the insert is a fluorescently-opaque polyethylene terephthalate (PET) membrane with 8 μm pores that are sufficiently large to permit cells to migrate across its surface. The insert was placed in a tissue culture plate with a chemotactic stimulus, TNF-α, in the lower well, which contained media with 30% FBS and TNF-A at a concentration of 200 Units/ml. Immediately after the inserts were placed into the respective wells, the wells were excited at a wavelength of 485 nm and the fluorescence emission was read at 535 nm. At the order of magnitude of cells that were used, the fluorescence is proportional to cell number in a linear relationship. After 24 hours, the plate was excited a second time and emission at 535 nm was read. Fluorescence was read only from the bottom well, such that only cells that have migrated contribute to the measured fluorescence. The proportion of cells that migrated was determined by dividing the fluorescence of the bottom of the wells at 24 hours by the initial fluorescence from the top of the wells at the time of plating. […]

In data set [15] the test system is VSMCs. Conditions: 100 μM, after 5 days of serum stimulation. As to the method:
When it is reduced, it emits fluorescence at 590 nm. Therefore, emission at 590 nm was used as a marker for relative cellular proliferation. Cells were incubated in the dark in media containing 10% alamarBlue (BioSource International, Carmilla, Calif.) and 10% FBS for four hours. After incubation, 1 ml of media from the incubated cells was mixed with 1 ml of media containing 10% FBS and the emission at 590 nm was recorded.
A time-zero alamarBlue Assay was performed after a 12-hour period of starvation to assure equal cell loading and synchronization in the cell cycle. The cells were incubated with predetermined concentrations of the PKC inhibitor, 20-28. Cells were incubated in media with 30% FBS for a total of 24 hours. At that point, alamarBlue assays were performed at predetermined intervals. After each assay was completed, the media was replenished with media containing 30% FBS. As in the migration assay, an unstimulated, negative control with standard media was assayed.
To inhibit the effects of MARCKS activity, cells in culture were treated with the protein kinase C inhibitor 20-28 (Calbiochem, La Jolla, Calif.). […] Eichholtz, T. et al. (1993) J. Biol. Chem. 268:1982-1986.

Entries after “also recorded” stand apart in the source; their conditions may differ. No end group written: not given here. *: point of attachment. Myristoyl = CCCCCCCCCCCCCC(=O)*; {P} = phosphate

As to “MARCKS siRNA: siRNA, sense 5′-GGU-GCC-CAG-UUC-UCC-AAG-AUU-3′ (SEQ ID NO. 18), anti-sense SEQ ID NO. 19 with 5′ phosphate (sense GGUGCCCAGUUCUCCAAGAUU; antisense UCUUGGAGAACUGGGCACCUU; sense: chemistry not given here; antisense: 5' {P}, sugars by position and backbone not given here)”, the “effect on proliferation in transfected vein” value in data set [1] is reported as “reduced proliferation”. Also, the “MARCKS mRNA knockdown” value in the data set with MARCKS mRNA [2] was determined as 54±2%; in the data set on MARCKS mRNA [3], 89±1%. The “MARCKS protein knockdown (Western blot)” value in the data set on MARCKS protein [4] and in the data set with MARCKS protein [5] was “complete knockdown” throughout. In the data set on HVSMCs [6], the “cellular migration, % of controls” value was determined as 68±7%. The “effect on cellular migration” value with HECs [7] (25 nM (FIG. 14B also 10 nM), vs control siRNA) is listed as “no significant effect; also recorded: no significant difference”. Further, the relative cellular migration in the data set with HECs [7] (25 nM, 5% FBS with 200 ng/ml VEGF) was found to be 1.0±0.7. Further, the “effect on HVSMC proliferation” value with HVSMCs [8] (25 nM (FIG. 15A: 25, 50 and 100 nM), vs control scrambled siRNA) is “near complete arrest”. For the same substance, the “proliferation, fold increase at day 6” value is recorded as 1.41±0.36 fold in the data set on HVSMCs [8] (HVSMCs, 25 nM, 30% FBS, relative to Day 0) and 1.90±0.06 fold in the data set on HECs [9] (HECs, relative to Day 0). Also, the “effect on HEC proliferation” value with HECs [9] (full MARCKS knockdown) is reported as “only a minimal effect”. The “increase in p27^kip1 protein expression relative to controls” value in the data set with p27^kip1 [10] turned out to be 3.2 fold; in the data set with p27^kip1 [11], 1.8 fold. Besides, the MARCKS knockdown is 0±12% in the data set on MARCKS mRNA [12] (0 ATM), 41±12% with MARCKS mRNA [12] (0.4 ATM), 22±17% with MARCKS mRNA [13] (0 ATM) and 53±10% with MARCKS mRNA [13] (0.4 ATM).
In the case of Myristoyl-FARKGALRQ [20-28], the “proportion of cells migrated across the membrane” value with VSMCs [14] is 6.9%±1.5%. In addition, in the data set with VSMCs [15], the “emission at 590 nm (alamarBlue)” value came to 58.0±12.1.

The values above are taken from patent publication US8119400B2, “Methods of inhibiting smooth muscle cell migration and proliferation” (Beth Isreal Deaconess Medical Center, Inc., priority 2005, dated 2012).
